Converted amounts (≈) assume the structure as drawn. A value given as a limit tells only on which side of the number the result lay.

Among the test systems are Staphylococcus simulans; Escherichia coli D21; Micrococcus luteus; Escherichia coli K-12; Listeria ivanovii LMA 94; Escherichia coli L-; Staphylococcus aureus.
What all share (experiment): ≥ marks a high value that may be exact or a test limit, other limits are often not marked, values filed in µg/mL are converted to µM
Test [1] relates to Escherichia coli ATCC 25922.
In test [2] the test system is Staphylococcus aureus II ATCC 6538P.
Test [3] concerns Staphylococcus epidermidis LT1324.
Test [4] relates to Pseudomonas aeruginosa ATCC 27853.
Test [5] relates to Acinetobacter baumannii ATCC 19606.
The test system of test [6] is Staphylococcus aureus USA 300.
Test [7] relates to Staphylococcus aureus CIP 677.
Test [8] has as its system Klebsiella pneumoniae CIP 8291.
Test [9] deals with Lactococcus lactis subsp. cremoris I116.
Test [10] relates to Cutibacterium acnes ATCC 15725.
Test [11] relates to Klebsiella pneumoniae ATCC 43816.
Test [12] has as its system Cutibacterium acnes ATCC 29903.
In test [13] the test system is Cutibacterium acnes ATCC 33257.
The subject of test [14] is Enterococcus faecalis NCTC 12697.
Test [15] deals with Staphylococcus aureus NCTC 12493.
Test [16] concerns Candida albicans ATCC 90028.
Test [17] has as its system Staphylococcus aureus ATCC 6538.
Test [18] relates to Cutibacterium acnes ATCC 11828.
Test [19] deals with Escherichia coli ATCC BAA-2340.
The subject of test [20] is Cutibacterium acnes ATCC 18380.
Test [21] relates to Escherichia coli ATCC 25726.
Test [22] has as its system Pseudomonas aeruginosa ATCC 9027.
The test system of test [23] is Cutibacterium acnes ATCC 31766.
Test [24] has as its system Candida albicans ATCC 10231.
The test system of test [25] is Cutibacterium acnes ATCC 32548.
Test [26] has as its system Cutibacterium acnes ATCC 50247.
Test [27] has as its system Pseudomonas aeruginosa B004 V2S2B.
Test [28] deals with Klebsiella pneumoniae ATCC BAA-1705.
The test system of test [29] is Escherichia coli ATCC 8739.
The subject of test [30] is Staphylococcus aureus ATCC 25923.

The term MIC denotes the smallest concentration in the dilution series that meets the test's criterion for growth inhibition. Consider `CC(C)C[C@H](NC(=O)[C@H](CC(C)C)NC(=O)[C@H](CC(C)C)NC(=O)[C@H](CC(C)C)NC(=O)[C@H](CC(C)C)NC(=O)[C@H](CC(C)C)NC(=O)[C@H](CC(C)C)NC(=O)[C@H](CC(C)C)NC(=O)[C@H](CC(C)C)NC(=O)[C@H](CCCCN)NC(=O)[C@H](CCCCN)NC(=O)[C@@H](N)CCCCN)C(=O)N[C@@H](CCCCN)C(=O)N[C@@H](CCCCN)C(=O)N[C@@H](CCCCN)C(N)=O` [KKKLLLLLLLLLKKK], for which the MIC in test [1] was 50 µM (≈ 90.2 µg/mL); in test [2], ≥ 50 µM; with Staphylococcus simulans it was ≥ 32 µM; in test [3] it was ≥ 32 µM; in test [4], > 50 µM; with Escherichia coli D21, ≥ 50 µM. For the same compound, the MIC in test [5] stood at 50 µM (≈ 90.2 µg/mL); in the test on Micrococcus luteus it was 16 µM (≈ 28.9 µg/mL).
On to `CC[C@H](C)[C@H](NC(=O)[C@H](CCCCN)NC(=O)CNC(=O)[C@H](CC(C)C)NC(=O)[C@@H](NC(=O)[C@H](C)NC(=O)[C@H](CCCCN)NC(=O)CNC(=O)[C@H](C)NC(=O)CNC(=O)[C@H](CCCCN)NC(=O)[C@@H](NC(=O)[C@H](CCCCN)NC(=O)[C@@H](NC(=O)[C@H](Cc1c[nH]c2ccccc12)NC(=O)[C@H](CC(C)C)NC(=O)[C@H](CCC(=O)O)NC(=O)[C@H](CCCCN)NC(=O)[C@H](CC(C)C)NC(=O)[C@@H](N)CC(C)C)[C@@H](C)O)[C@@H](C)CC)C(C)C)C(=O)N[C@@H](CCCCN)C(=O)NCC(=O)N[C@@H](CC(C)C)C(=O)N[C@@H](CC(C)C)C(=O)O` [LLKELWTKIKGAGKAVLGKIKGLL], for which the MIC against Escherichia coli K-12 was 25 µM (≈ 64.5 µg/mL); in [6] it was ≥ 85 µM; with Listeria ivanovii LMA 94, 4 µM (≈ 10.3 µg/mL); against Escherichia coli L- it was ≥ 64 µM; in test [7] it was ≥ 32 µM; in test [8], ≥ 32 µM. The same compound yielded an MIC in test [9] of 2 µM (≈ 5.16 µg/mL).
On to `CC[C@H](C)[C@H](NC(=O)[C@@H](NC(=O)CN)C(C)C)C(=O)N[C@H](C(=O)N[C@@H](CC(=O)O)C(=O)N[C@H](C(=O)N[C@@H](CC(C)C)C(=O)N[C@@H](CCCCN)C(=O)NCC(=O)N[C@@H](C)C(=O)N[C@@H](C)C(=O)N[C@@H](CCCCN)C(=O)N[C@H](C(=O)N[C@H](C(=O)N[C@@H](C)C(=O)N[C@@H](C)C(=O)N[C@@H](CCC(=O)O)C(=O)N[C@@H](CC(C)C)C(=O)N[C@@H](CC(C)C)C(=O)N[C@@H](CCCN=C(N)N)C(=O)N[C@@H](CCCCN)C(=O)N[C@@H](C)C(=O)N[C@@H](Cc1cnc[nH]1)C(=O)N[C@H]1CSSC[C@@H](C(=O)O)NC(=O)[C@H](CO)NC(=O)[C@H](CC(N)=O)NC(=O)[C@H]([C@@H](C)O)NC(=O)[C@H](CC(C)C)NC(=O)[C@H](CCCCN)NC1=O)C(C)C)[C@@H](C)O)[C@@H](C)O)[C@@H](C)CC` [GVIIDTLKGAAKTVAAELLRKAHCKLTNSC], for which the MIC in test [10] was 25 µM (≈ 78.1 µg/mL); in test [11], ≥ 128 µM; in [12] it was 25 µM (≈ 78.1 µg/mL); in [13], 6 µM (≈ 18.7 µg/mL); in [14], ≥ 512 µM; in [15] it was ≥ 512 µM. Moreover, the MIC in [16] was ≥ 64 µM; in test [17], 32 µM (≈ 100 µg/mL); against Staphylococcus aureus, > 512 µM; in test [18] it was 12.5 µM (≈ 39 µg/mL); in [19] it was ≥ 32 µM; in test [20], 12.5 µM (≈ 39 µg/mL). Also, the minimum inhibitory concentration (MIC) was ≥ 32 µM in test [21]; 128 µM (≈ 400 µg/mL) in test [22]; 6 µM (≈ 18.7 µg/mL) in test [23]; > 512 µM in [24]; 25 µM (≈ 78.1 µg/mL) in test [25]; 6 µM (≈ 18.7 µg/mL) in [26]. For the same compound, the MIC in [27] is ≥ 512 µM; in test [28], ≥ 512 µM; in test [29] it was 16 µM (≈ 50 µg/mL); in [30], 64 µM (≈ 200 µg/mL).

(Values after DBAASP.)
